Test results from patent publication US8541405B2, “Methods for the preparation of Ivabradine sulfate and form I crystal thereof” (Jiangsu Hengrui Medicine Co., Ltd., priority 2009, dated 2013).
Structures can show the parent of a compound that is named as a salt.

Columns and labels:
[1] = Stability test of crystal samples placed open in the air (illumination, heating, humidity), HPLC analysis; type: physicochemical; settings: for HPLC analysis result, 60° C.: heating 60° C.; for HPLC analysis result, 60° C. / HPLC analysis result, RH90% / HPLC analysis result, Light: open in air; for HPLC analysis result, RH90%: humidity RH 90%; for HPLC analysis result, Light: illumination 4500 Lux
Excerpt: The stability investigation of different Ivabradine hydrochloride crystal form: three different solvents crystallization of samples were obtained in turn according to the method of example 4 except that Ivabradine sulfate is substituted with Ivabradine hydrochloride and ethanol is substituted with acetonitrile, ethyl acetate, acetone.
Moreover, α-form crystal samples can be obtained using toluene, N-methyl pyrrole as crystallization solvents according to the method disclosed in CN1583341A.
The four samples obtained above and the form I crystal of Ivabradine sulfate prepared in example 1 were placed opening in the air to test the stability in various conditions including illumination (4500 Lux), heating (60° C.), humidity (RH 90%).

[2] = pH of the Ivabradine sulfate aqueous solution; type: physicochemical; settings: C=1%
Protocol: (§1) 4.3 g of […] was dissolved in 100 ml of acetone, then 30 ml of acetone containing 1 g of sulfuric acid was added. The obtained mixture was stirred and white crystals were precipitated from the reaction solution. The resulting precipitate was collected by filtration, washed with acetone and then dried at 60° C. in vacuum for 3 hours to obtain 4.8 g of Ivabradine sulfate. Melting point was determined by capillary crystalline approach at 156˜158° C. Water content is 0.8%. The pH of the Ivabradine sulfate aqueous is about 1.8 (C=1%). Yield: 90.5%.
as §1, with “containing 0.4” for “containing 1”, “obtain 1.2” for “obtain 4.8”, “Yield: 55.5%. It is form I crystal of Ivabradine sulfate judged by X-ray and DSC patterns.” for “Yield: 90.5%.”

COc1cc2c(cc1OC)CC(=O)N(CCCN(C)C[C@H]1Cc3cc(OC)c(OC)cc31)CC2 [Ivabradine hydrochloride 20080911, Ivabradine hydrochloride]
HPLC analysis result, 60° C. ([1]; Time 0 day, hydrochloride): 99.55%
HPLC analysis result, 60° C. ([1]; Time 5 days, hydrochloride): 99.31%
HPLC analysis result, 60° C. ([1]; Time 10 days, hydrochloride): 99.12%
HPLC analysis result, RH90% ([1]; Time 0 day, hydrochloride): 99.55%
HPLC analysis result, RH90% ([1]; Time 5 days, hydrochloride): 99.10%
HPLC analysis result, RH90% ([1]; Time 10 days, hydrochloride): 98.42%
HPLC analysis result, Light ([1]; Time 0 day, hydrochloride): 99.55%
HPLC analysis result, Light ([1]; Time 5 days, hydrochloride): 98.88%
HPLC analysis result, Light ([1]; Time 10 days, hydrochloride): 98.07%

COc1cc2c(cc1OC)CC(=O)N(CCCN(C)C[C@H]1Cc3cc(OC)c(OC)cc31)CC2 [Ivabradine sulfate 20080922, Ivabradine sulfate]
pH of the Ivabradine sulfate aqueous [2]: about 1.8
HPLC analysis result, 60° C. ([1]; Time 0 day): 99.46%
HPLC analysis result, 60° C. ([1]; Time 5 days): 99.42%
HPLC analysis result, 60° C. ([1]; Time 10 days): 99.40%
HPLC analysis result, RH90% ([1]; Time 0 day): 99.46%
HPLC analysis result, RH90% ([1]; Time 5 days): 99.28%
HPLC analysis result, RH90% ([1]; Time 10 days): 99.19%
HPLC analysis result, Light ([1]; Time 0 day): 99.46%
HPLC analysis result, Light ([1]; Time 5 days): 99.42%
HPLC analysis result, Light ([1]; Time 10 days): 99.39%
stability compared with the α-form crystal of Ivabradine hydrochloride ([1]; under high moisture conditions): more stable
stability compared with the α-form crystal of Ivabradine hydrochloride ([1]; under the light and heat condition): similar
stability compared with the polymorphism or mixed crystal of Ivabradine hydrochloride from acetonitrile, ethyl acetate, acetone ([1]; under various conditions): improved significantly

COc1cc2c(cc1OC)CC(=O)N(CCCN(C)C[C@H]1Cc3cc(OC)c(OC)cc31)CC2 [Ivabradine sulfate 20080618, Ivabradine hydrochloride]
HPLC analysis result, 60° C. ([1]; Time 0 day, hydrochloride): 99.54%
HPLC analysis result, 60° C. ([1]; Time 5 days, hydrochloride): 99.50%
HPLC analysis result, 60° C. ([1]; Time 10 days, hydrochloride): 99.46%
HPLC analysis result, RH90% ([1]; Time 0 day, hydrochloride): 99.54%
HPLC analysis result, RH90% ([1]; Time 5 days, hydrochloride): 99.23%
HPLC analysis result, RH90% ([1]; Time 10 days, hydrochloride): 99.00%
HPLC analysis result, Light ([1]; Time 0 day, hydrochloride): 99.54%
HPLC analysis result, Light ([1]; Time 5 days, hydrochloride): 99.47%
HPLC analysis result, Light ([1]; Time 10 days, hydrochloride): 99.42%

COc1cc2c(cc1OC)CC(=O)N(CCCN(C)C[C@H]1Cc3cc(OC)c(OC)cc31)CC2 [Ivabradine hydrochloride 20080912, Ivabradine hydrochloride]
HPLC analysis result, 60° C. ([1]; Time 0 day, hydrochloride): 99.57%
HPLC analysis result, 60° C. ([1]; Time 5 days, hydrochloride): 99.36%
HPLC analysis result, 60° C. ([1]; Time 10 days, hydrochloride): 99.05%
HPLC analysis result, RH90% ([1]; Time 0 day, hydrochloride): 99.57%
HPLC analysis result, RH90% ([1]; Time 5 days, hydrochloride): 99.20%
HPLC analysis result, RH90% ([1]; Time 10 days, hydrochloride): 98.91%
HPLC analysis result, Light ([1]; Time 0 day, hydrochloride): 99.57%
HPLC analysis result, Light ([1]; Time 5 days, hydrochloride): 99.29%
HPLC analysis result, Light ([1]; Time 10 days, hydrochloride): 98.87%

COc1cc2c(cc1OC)CC(=O)N(CCCN(C)C[C@H]1Cc3cc(OC)c(OC)cc31)CC2 [Ivabradine hydrochloride 20080908, Ivabradine hydrochloride]
HPLC analysis result, 60° C. ([1]; Time 0 day, hydrochloride): 99.56%
HPLC analysis result, 60° C. ([1]; Time 5 days, hydrochloride): 98.74%
HPLC analysis result, 60° C. ([1]; Time 10 days, hydrochloride): 99.04%
HPLC analysis result, RH90% ([1]; Time 0 day, hydrochloride): 99.56%
HPLC analysis result, RH90% ([1]; Time 5 days, hydrochloride): 99.03%
HPLC analysis result, RH90% ([1]; Time 10 days, hydrochloride): 98.61%
HPLC analysis result, Light ([1]; Time 0 day, hydrochloride): 99.56%
HPLC analysis result, Light ([1]; Time 5 days, hydrochloride): 97.45%
HPLC analysis result, Light ([1]; Time 10 days, hydrochloride): 94.91%
